Source: patent US7074822B2, “Alkyl carbamate-substituted β-lactones, process for their preparation, and pharmaceutical compositions containing them” (Solvay Pharmaceuticals GmbH, priority 2004, dated 2006)

target: T1, porcine pancreatic lipase (Sus scrofa, UniProt P00591); experiment: p-nitrophenyl palmitate (pNpp) test: inhibition of lipolytic action of porcine pancreatic lipase in vitro; assay type: biochemical; settings: substrate p-nitrophenyl palmitate, 37° C., absorbance at 405 nm; read-out: IC50, porcine pancreatic lipase-inhibiting action in vitro with respect to pNpp
T1 construct: lipase standard LS7 in accordance with the rules of the “Fédération Internationale Pharmaceutique” (=FIP) (porcine pancreatic lipase, 36,700 FIP units/g); host or cells: porcine pancreas
T1 sequence (P00591 1-450): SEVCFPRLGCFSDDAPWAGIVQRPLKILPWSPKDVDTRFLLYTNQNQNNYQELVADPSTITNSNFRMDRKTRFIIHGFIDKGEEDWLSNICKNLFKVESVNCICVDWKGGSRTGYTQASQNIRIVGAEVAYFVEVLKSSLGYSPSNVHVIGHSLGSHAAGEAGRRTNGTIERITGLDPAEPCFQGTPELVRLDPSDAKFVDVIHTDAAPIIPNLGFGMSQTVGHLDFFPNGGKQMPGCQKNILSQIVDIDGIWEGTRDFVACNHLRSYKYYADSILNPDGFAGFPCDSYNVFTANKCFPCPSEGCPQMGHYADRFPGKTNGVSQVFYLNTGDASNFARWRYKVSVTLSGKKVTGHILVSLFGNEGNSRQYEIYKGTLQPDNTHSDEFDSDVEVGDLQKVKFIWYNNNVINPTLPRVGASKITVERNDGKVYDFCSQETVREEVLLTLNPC
Method: 1. p-nitrophenyl Palmitate Test
In this test the inhibition of the lipolytic action of porcine pancreatic lipase with respect to the test substrate p-nitrophenyl palmitate(=pNpp) under the influence of the test substances of Formula I was determined. Therein, the change in the relative absorbance of the investigated solutions caused by the lipolytic release of p-nitrophenol from pNpp was measured.
(§1) The reagents given below were prepared:
To prepare a “solution A”, 45 mg pNpp was dissolved in 15 ml isopropanol by sonication with ultrasound. To prepare a “solution B”, 558 mg Na-deoxycholate dry substance and 67.5 mg gum arabic were dissolved in 135 ml 0.05 M sodium phosphate buffer (pH=8.0). 15 ml “solution A” was injected into 135 ml ice-cold “solution B” in […] of 1.25 ml with an Eppendorf hand dispenser with stirring at 400 rpm at the highest possible rate. The initial absorbance E1 when determining the blank reading was less than 0.250 U each time.
B. Sodium Chloride Solution 1% (mN)
10 g sodium chloride (NaCl, p.a.) was dissolved in 1000 ml ultrapure water.
C. Lipase Standard Solution (50 FIP units/ml)
120.8 mg lipase standard LS7 in accordance with the rules of the “Fédération Internationale Pharmaceutique” (=FIP) (porcine pancreatic lipase, 36,700 FIP units/g) was dissolved in 50 ml ice-cold sodium chloride solution (B) and filtered through a 0.2 μm syringe filter. 20 ml of the filtrate was diluted with […] sodium chloride solution (B) (corresponding to 50 FIP units/ml).
D. Lipase Calibration Solutions (10–20–30–40 FIP units/ml)
In each case 2–4–6–8 ml lipase standard solution (C) was made up to 10 ml with sodium chloride solution (B) and stored in an ice bath.
E. Lipase Stock Solution (40 FIP units/ml)
8 ml lipase standard solution was made up to 10 ml with sodium chloride solution (B) and stored in an ice bath.
The lipase-inhibitory compounds of Formula I were dissolved in DMSO. A dilution series of 100–0.1 nmol/ml was produced from this stock solution. 100 μl of these dilutions were used in the test. The dilutions were adapted such that the maximum residual activity of the lipase was >90%.
Measurement was effected at 37° C., and the absorbances were measured at a wavelength of 405 nm. The photometric measuring station comprised a photometer and an agitator (from Eppendorf). The photometer was adjusted to 0 U with water. At the start and end of the investigation series, in each case eight blank readings and one lipase calibration series were measured. For the blank readings, in each case 1 ml substrate solution was mixed with 100 μl DMSO, the mixture was shaken for 5 seconds and kept at a controlled temperature for 5 minutes. Then 100 μl sodium chloride solution (B) were added thereto by pipette and the mixture was shaken for a further 5 seconds. After 2 minutes, the increase in absorbance was detected for 4 minutes. The absorbance starting value E1 when determining the blank readings was in each case less than 0.250 U.
For the calibration, 1 ml substrate solution was placed in each of eight cuvettes, mixed with 100 μl DMSO, shaken for 5 seconds and kept at a controlled temperature for 5 minutes. The reaction was started with 100 μl calibration solution. After 2 minutes, the kinetics were detected for 4 minutes. Each concentration was measured twice.
For measuring the inhibitor solutions, 1 ml substrate solution was placed in each of eight cuvettes, mixed with 100 μl inhibitor solution, shaken for 5 seconds and then kept at a controlled temperature for 5 minutes. The reaction was started with 100 μl lipase stock solution. After 2 minutes, the kinetics were detected for 4 minutes. The inhibitor solutions and the lipase standard solution were each prepared immediately before the start of the investigation series. […]

Row | SMILES | IC50
1 | CCCCCCC1C(=O)OC1CCCCCOC(=O)NCCc1ccccc1 (stereo not shown) [Example 11] | 28 nM
2 | CCCCCCC1C(=O)OC1CCCCCOC(=O)NC(=O)c1ccccc1 (stereo not shown) [Example 10] | 177 nM
3 | CCCCCCC1C(=O)OC1CCCCCOC(=O)NCc1ccccc1 (stereo not shown) [Example 8] | 187 nM
4 | CCCCCCC1C(=O)OC1CCCCCOC(=O)Nc1ccc(Cl)c(Cl)c1 (stereo not shown) [Example 13] | 319 nM
5 | CCCCCC[C@@H]1C(=O)O[C@H]1CCCCCOC(=O)Nc1ccc(Oc2ccccc2)cc1 (relative stereo) [Example 1, trans-(3-hexyl-4-oxo-oxetan-2-yl)-pentyl-(phenoxyphenyl)-carbamate] | 106 nM
6 | CCCCCCC1C(=O)OC1CCCCCOC(=O)Nc1ccc(OCC)cc1 (stereo not shown) [Example 9] | 67 nM
7 | CCCCCC[C@@H]1C(=O)O[C@H]1CCCCCOC(=O)Nc1ccc(Oc2ccccc2)cc1 [Example 6, (2S,3S)-5-(3-hexyl-4-oxo-oxetan-2-yl)-pentyl-(4-phenoxyphenyl)-carbamate] | 113 nM
8 | CCCCCCC1C(=O)OC1CCCOC(=O)Nc1ccccc1 (racemic) [Example 7] | 107 nM
9 | CCCCCCC1C(=O)OC1CCCCCOC(=O)NC(C)C (mixture of isomers) [Example 3, cis/trans-5-(3-hexyl-4-oxo-oxetan-2-yl)pentyl-isopropyl carbamate] | 88 nM
10 | CCCCCCC1C(=O)OC1CCCCCOC(=O)Nc1ccccc1 (mixture of isomers) [Example 2, cis/trans-5-(3-hexyl-4-oxo-oxetan-2-yl)pentyl-phenyl carbamate] | 47 nM

tested on: pancreatic lipase; experiment: Pancreatic lipase-inhibiting action of intermediates of Formula IVa (statement, no method given); assay type: biochemical; settings: qualitative statement

Row | SMILES | action inhibiting pancreatic lipase
11 | CCCCCCC1C(=O)OC1CCCCCOCc1ccccc1 (stereo not shown) [3-hexyl-4-[5(benzyloxy)pentyl}]oxetan-2-one] | exhibit an action inhibiting pancreatic lipase
12 | CCCCCCC1C(=O)OC1CCCCCOC1CCCCO1 (stereo not shown) [3-hexyl-4-{5[(tetrahydro-2H-pyran-2-yl)oxy]pentyl}oxetan-2-one] | exhibit an action inhibiting pancreatic lipase

target: T1, porcine pancreatic lipase; experiment: Olive oil test: inhibition of porcine pancreatic lipase with respect to triglycerides in olive oil (pH-stat titration); assay type: biochemical; settings: substrate olive oil emulsion, pH 9.0, 37.0° C., 10 minutes pre-incubation in ice bath; read-out: IC50, porcine pancreatic lipase-inhibiting action in vitro with respect to triglycerides in olive oil
Method: In a heterogeneous reaction, the inhibition of the lipolytic action of porcine pancreatic lipase was determined under the influence of the test substances of Formula I with respect to the triglycerides contained in the test substrate olive oil. The fatty acids released by the lipase were titrated with sodium hydroxide solution to pH 9.0.
as §1
A. Gum Arabic Solution 10% (m/V)
200 g gum arabic (Acaciae gummi in accordance with the specifications of the German Pharmacopeia (=DAB)/European Pharmacopeia (=Ph.Eur.) was dissolved in 2000 ml ultrapure water with stirring and if necessary centrifugation. The solution was stored at −20° C. in plastic vessels of capacity of 250 ml. The amount required per day was thawed as required.
B. Sodium Taurocholate Solution 8% (m/V)
8 g sodium taurocholate (FIP) was dissolved in 100 ml ultrapure water.
60.6 mg Tris(hydroxymethyl)aminomethane p.a. (Merck, No. 8382) and 234 mg sodium chloride (p.a.) were dissolved in 100 ml ultrapure water.
D. 0.1 N Sodium Hydroxide Solution […]
1 ml lipase reference suspension was incubated with the respective amount of inhibitor solution for 10 minutes in an ice bath. […] The sodium hydroxide consumption between the 1st and the 5th minute was evaluated. […]

Row | SMILES | IC50
13 | CCCCCC[C@@H]1C(=O)O[C@H]1CCCCCOC(=O)Nc1ccc(Oc2ccccc2)cc1 (relative stereo) [Example 1, trans-(3-hexyl-4-oxo-oxetan-2-yl)-pentyl-(phenoxyphenyl)-carbamate] | 17 nM
